Structures are written as SMILES.

By bioavailability is commonly meant the share of a dose that reaches the circulation, judged against a reference dose that is usually intravenous. A low value points to little systemic uptake. The term clearance denotes the rate of elimination divided by the concentration. A word on the half-life: it is the time in which the quantity being followed falls by half. A low value points to fast loss.

The nature of data set [1]: in vivo. The conditions noted are these: mouse, po.
Description: Oral bioavailability in wild type mouse
Data set [2] in a line: in vivo. The conditions noted are these: mouse.
Description: Clearance in wild type mouse
Data set [3] is described as follows: in vivo. The following applies: mouse. This is another data set of the same source.
Description: Half life in wild type mouse

Turning to `Cc1cc(C#N)cc2nc(-c3ccc(NC(=O)CN4CCN(c5ccc(C(F)(F)F)cc5)CC4)cc3)oc12`, in the data set “in vivo [1]”, the bioavailability was 56%. The compound also registered a clearance in “in vivo [2]” of 25 mL/min/kg. This compound showed a half-life in the data set “in vivo [3]” of 4.1 h.

(Values after ChEMBL document CHEMBL1641416, “2-Arylbenzoxazoles as CETP inhibitors: raising HDL-C in cynoCETP transgenic mice” (Bioorg Med Chem Lett, 2011).)
